From the OligoGym collection
Oligonucleotides are written 5' to 3', each unit as a sugar letter and its base; * is a phosphorothioate linkage, no mark a phosphodiester; rarer units and linkages stand in square brackets, end groups in braces. Plain capitals give the bases only. d = 2'-deoxy (DNA); r = 2'-OH (RNA)

What follows are substances tested against UBE2C (assay: reporter assay of Huesken 2005). Settings: siRNA.
Further: test concentration or dose not given here.

Row | Substance | normalised inhibition (eCFP-eYFP dual reporter) [%]
1 | sense rArArCrArUrUrGrArUrArGrUrCrCrCrUrUrGrAdTdT / antisense rUrCrArArGrGrGrArCrUrArUrCrArArUrGrUrUdGdG | 93.1
2 | sense rArArGrArCrCrUrGrArGrGrUrArUrArArGrCrUdTdT / antisense rArGrCrUrUrArUrArCrCrUrCrArGrGrUrCrUrUdCdA | 46.4
3 | sense rArArGrUrUrCrCrUrCrArCrGrCrCrCrUrGrCrUdTdT / antisense rArGrCrArGrGrGrCrGrUrGrArGrGrArArCrUrUdCdA | 51
4 | sense rArArUrGrCrGrCrCrCrArCrArGrUrGrArArGrUdTdT / antisense rArCrUrUrCrArCrUrGrUrGrGrGrCrGrCrArUrUdGdT | 57.6
5 | sense rArCrArArUrGrCrGrCrCrCrArCrArGrUrGrArAdTdT / antisense rUrUrCrArCrUrGrUrGrGrGrCrGrCrArUrUrGrUdAdA | 93.7
6 | sense rArCrArCrArCrArUrGrCrUrGrCrCrGrArGrCrUdTdT / antisense rArGrCrUrCrGrGrCrArGrCrArUrGrUrGrUrGrUdTdC | 78
7 | sense rArCrArGrUrArUrArUrGrArArGrArCrCrUrGrAdTdT / antisense rUrCrArGrGrUrCrUrUrCrArUrArUrArCrUrGrUdTdC | 88.1
8 | sense rArCrArUrArUrGrCrCrUrGrGrArCrArUrCrCrUdTdT / antisense rArGrGrArUrGrUrCrCrArGrGrCrArUrArUrGrUdTdA | 75.7
9 | sense rArCrArUrCrCrUrGrArArGrGrArArArArGrUrGdTdT / antisense rCrArCrUrUrUrUrCrCrUrUrCrArGrGrArUrGrUdCdC | 46.2
10 | sense rArCrArUrUrGrArUrArGrUrCrCrCrUrUrGrArAdTdT / antisense rUrUrCrArArGrGrGrArCrUrArUrCrArArUrGrUdTdG | 90.8
11 | sense rArCrCrArUrCrCrArUrGrGrArGrCrArGrCrUrGdTdT / antisense rCrArGrCrUrGrCrUrCrCrArUrGrGrArUrGrGrUdCdC | 62.1
12 | sense rArCrCrCrArGrGrGrUrArArCrArUrArUrGrCrCdTdT / antisense rGrGrCrArUrArUrGrUrUrArCrCrCrUrGrGrGrUdGdT | 39.6
13 | sense rArCrCrCrUrUrArCrArArUrGrCrGrCrCrCrArCdTdT / antisense rGrUrGrGrGrCrGrCrArUrUrGrUrArArGrGrGrUdAdG | 47.4
14 | sense rArCrCrUrGrArGrGrUrArUrArArGrCrUrCrUrCdTdT / antisense rGrArGrArGrCrUrUrArUrArCrCrUrCrArGrGrUdCdT | 80.9
15 | sense rArCrGrUrGrGrArCrArCrCrCrArGrGrGrUrArAdTdT / antisense rUrUrArCrCrCrUrGrGrGrUrGrUrCrCrArCrGrUdTdG | 83
16 | sense rArGrArCrCrUrGrArGrGrUrArUrArArGrCrUrCdTdT / antisense rGrArGrCrUrUrArUrArCrCrUrCrArGrGrUrCrUdTdC | 71.7
17 | sense rArGrArGrUrUrCrCrCrCrArGrUrGrGrCrUrArCdTdT / antisense rGrUrArGrCrCrArCrUrGrGrGrGrArArCrUrCrUdAdG | 87
18 | sense rArGrCrUrGrGrArArCrArGrUrArUrArUrGrArAdTdT / antisense rUrUrCrArUrArUrArCrUrGrUrUrCrCrArGrCrUdGdC | 97.5
19 | sense rArGrGrArGrArArCrCrCrArArCrArUrUrGrArUdTdT / antisense rArUrCrArArUrGrUrUrGrGrGrUrUrCrUrCrCrUdAdG | 94.2
20 | sense rArGrGrUrArUrArArGrCrUrCrUrCrGrCrUrArGdTdT / antisense rCrUrArGrCrGrArGrArGrCrUrUrArUrArCrCrUdCdA | 92.4
21 | sense rArGrUrArUrArUrGrArArGrArCrCrUrGrArGrGdTdT / antisense rCrCrUrCrArGrGrUrCrUrUrCrArUrArUrArCrUdGdT | 77.2
22 | sense rArGrUrGrGrCrUrArCrCrCrUrUrArCrArArUrGdTdT / antisense rCrArUrUrGrUrArArGrGrGrUrArGrCrCrArCrUdGdG | 76.9
23 | sense rArGrUrGrGrUrCrUrGrCrCrCrUrGrUrArUrGrAdTdT / antisense rUrCrArUrArCrArGrGrGrCrArGrArCrCrArCrUdTdT | 61.1
24 | sense rArGrUrUrCrCrUrCrArCrGrCrCrCrUrGrCrUrAdTdT / antisense rUrArGrCrArGrGrGrCrGrUrGrArGrGrArArCrUdTdC | 84.4
25 | sense rArUrGrCrUrGrCrCrGrArGrCrUrCrUrGrGrArAdTdT / antisense rUrUrCrCrArGrArGrCrUrCrGrGrCrArGrCrArUdGdT | 84.5
26 | sense rArUrGrGrArGrCrArGrCrUrGrGrArArCrArGrUdTdT / antisense rArCrUrGrUrUrCrCrArGrCrUrGrCrUrCrCrArUdGdG | 84.5
